Measurements published in patent US5547978A, “Derivatives of pyrrolidin-2-ylcarbonylheterocyclic compounds” (priority 1994, dated 1996).
Read-outs that look alike come from different tables or passages of the source.

Biological target: T1, prolyl endopeptidase (Sus scrofa, UniProt P23687)
T1 construct: porcine kidney enzyme which was prepared according to methods of Walter and Yoshimoto et al; from tissue; host or cells: porcine kidney
Assay: Prolyl endopeptidase-inhibitory activity in vitro (porcine kidney enzyme, Z-Gly-Pro-p-nitroanilide substrate)
Type: biochemical
Procedure: A test compound (2 mg) was dissolved in DMSO (2 ml) and diluted to appropriate concentrations with DMSO. Z-Gly-Pro-p-nitroanilide (8 mg), a substrate was dissolved in dioxane (5 ml), water (27 ml) and 0.2 M phosphate buffer (pH 7.8, 40 ml). The substrate solution ([…]) was mixed with an inhibitor solution (3 ml) and followed by addition of above mentioned porcine kidney enzyme solution ([…]). Immediately after the mixing the UV absorbance at 405 nm was detected. The mixture was incubated at 37° C. for 20 min. and the UV absorbance was checked. A standard curve of absorbance (OD) vs. p-nitroaniline concentration was used to relate the absorbance to amount of substrate hydrolyzed. […] The inhibiting activity was obtained following the equation below. The IC50 value was estimated from the inhibitor concentration vs. inhibitory activity curve.
The percent inhibitory activity (%)=(ΔODc -ΔODs)/ΔODc ×100
ΔODs : ΔOD for test sample

[1] = porcine kidney enzyme, pH 7.8, 37° C., 20 min

T1 sequence (P23687 whole entry): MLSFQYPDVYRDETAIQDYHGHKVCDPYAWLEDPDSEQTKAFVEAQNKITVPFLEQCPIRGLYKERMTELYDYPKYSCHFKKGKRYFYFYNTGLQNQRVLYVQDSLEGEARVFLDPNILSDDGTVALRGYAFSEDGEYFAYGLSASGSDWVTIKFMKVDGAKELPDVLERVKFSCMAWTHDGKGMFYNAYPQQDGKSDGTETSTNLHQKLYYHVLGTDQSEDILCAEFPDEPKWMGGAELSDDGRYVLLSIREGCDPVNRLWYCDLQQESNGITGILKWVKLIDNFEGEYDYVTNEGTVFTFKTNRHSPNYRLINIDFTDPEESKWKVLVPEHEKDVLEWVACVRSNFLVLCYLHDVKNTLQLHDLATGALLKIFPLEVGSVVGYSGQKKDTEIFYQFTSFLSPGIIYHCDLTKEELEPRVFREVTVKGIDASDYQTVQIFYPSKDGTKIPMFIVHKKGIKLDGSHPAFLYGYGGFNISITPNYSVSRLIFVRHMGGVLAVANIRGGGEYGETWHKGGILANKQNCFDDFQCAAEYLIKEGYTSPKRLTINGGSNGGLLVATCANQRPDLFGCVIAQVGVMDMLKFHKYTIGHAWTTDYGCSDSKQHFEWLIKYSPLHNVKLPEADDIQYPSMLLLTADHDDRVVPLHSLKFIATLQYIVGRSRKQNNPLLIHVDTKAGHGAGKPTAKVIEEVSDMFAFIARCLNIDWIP

| IC50 [1] | Molecule | IC50 [nM] |
| --- | --- | --- |
| 5.50 ng/mL | 2-[1-{1-(4-Phenylbutanoyl)indolin-2(S)-ylcarbonyl}pyrrolidin-2(S)-ylcarbonyl]oxazole [Example 24] | – |
| 3.20 ng/mL | 2-[1-{1-(4-Phenylbutanoyl)pyrrolidin-2(S)-ylcarbonyl}pyrrolidin-2(S)-ylcarbonyl]oxazole [Example 23] | – |
| – | O=C(c1nccs1)[C@@H]1CCCN1C(=O)[C@@H]1C[C@@H](Sc2ccccc2)CN1C(=O)OCc1ccccc1 [Example 2, 2-[1-{1-Benzyloxycarbonyl-4(R)-phenylthiopyrrolidin-2(S)-ylcarbonyl}pyrrolidin-2(S)-ylcarbonyl]thiazole] | 4.79 |
| – | O=C(c1cocn1)[C@@H]1CCCN1C(=O)[C@@H]1Cc2ccccc2N1C(=O)OCc1ccccc1 [Example 3, 4-{1-(1-Benzyloxycarbonylindolin-2(S)-ylcarbonyl)pyrrolidin2(S) -ylcarbonyl}oxazole] | 9.54 |
| – | O=C(c1nccs1)[C@@H]1CCCN1C(=O)[C@@H]1CCCN1C(=O)OCc1ccccc1 [Example 4, 2-{1-(1-Benzyloxycarbonylpyrrolidin-2(S)-ylcarbonyl)pyrrolidin-2(S)-ylcarbonyl}thiazole] | 5.8 |
| 1.33 ng/mL | O=C(c1nccs1)[C@@H]1CCCN1C(=O)[C@@H]1CCCN1C(=O)CCCc1ccccc1 [Example 5, 2-[1-{1(4-Phenylbutanoyl)pyrrolidin-2(S)-ylcarbonyl}pyrrolidin-2(S)-ylcarbonyl]thiazole] | – |
| – | O=C(c1nccs1)[C@@H]1CCCN1C(=O)[C@@H]1CC2CCCCC2N1C(=O)OCc1ccccc1 (stereo partly drawn) [Example 6, 2-{1(1-Benzyloxycarbonyloctahydroindol-2(S)-ylcarbonyl)pyrrolidin-2(S)ylcarbonyl}thiazole] | 4.28 |
| – | O=C(c1nccs1)[C@@H]1CCCN1C(=O)[C@@H]1CC2CCCCC2N1C(=O)CCCc1ccccc1 (stereo partly drawn) [Example 7, 2-[1-{1-(4-Phenylbutanoyl)octahydroindol-2(S)-ylcarbonyl}pyrrolidin-2(S)-ylcarbonyl]thiazole] | 2.4 |
| – | O=C(c1nccs1)[C@@H]1CCCN1C(=O)[C@@H]1Cc2ccccc2N1C(=O)OCc1ccccc1 [Example 8, 2-{1-(1-Benzyloxycarbonylindolin-2(S)-ylcarbonyl)pyrrolidin-2(S)-ylcarbonyl}thiazole] | 3.68 |
| – | O=C(c1nccs1)[C@@H]1CCCN1C(=O)[C@@H]1Cc2ccccc2N1C(=O)CCCc1ccccc1 [Example 9, 2-[1-{1-(4-Phenylbutanoyl)indolin-2(S)-ylcarbonyl}pyrrolidin-2(S)-ylcarbonyl]thiazole] | 5.49 |
| – | O=C(c1nccs1)[C@@H]1CCCN1C(=O)[C@@H]1C[C@@H](Sc2ccccc2)CN1C(=O)CCCc1ccccc1 [Example 10, 2-[1-{1-(4-Phenylbutanoyl)-4(R)-phenylthiopyrrolidin-2(S)-ylcarbonyl}-pyrrolidin-2(S)-ylcarbonyl]thiazole] | 1.12 |
| – | O=C(CSCc1ccccc1)C1CCCCC1C(=O)N1CCC[C@H]1C(=O)c1nccs1 (stereo partly drawn) [Example 16, 2-[1-(2-Benzylthioacetylcyclohexan-1-ylcarbonyl)pyrrolidin-2(S)-ylcarbonyl]thiazole] | 53.7 |
| – | O=C(c1nc2ccccc2s1)[C@@H]1CCCN1C(=O)[C@@H]1CCCN1C(=O)OCc1ccccc1 [Example 17, 2-{1-(1-Benzyloxycarbonylpyrrolidin-2(S)-ylcarbonyl)pyrrolidin-2(S)-ylcarbonyl}benzothiazole] | 3.78 |
| – | O=C(c1nc2ccccc2s1)[C@@H]1CCCN1C(=O)[C@@H]1Cc2ccccc2N1C(=O)OCc1ccccc1 [Example 18, 2-{1-(1-Benzyloxycarbonylindolin-2(S)-ylcarbonyl)pyrrolidin-2(S)-ylcarbonyl}benzothiazole] | 7.33 |

| Molecule | IC50 [1] | IC50 [nM] |
| --- | --- | --- |
| 2-[1-{1-(4-Phenylbutanoyl)pyrrolidin-2(S)-ylcarbonyl}pyrrolidin-2(S)-ylcarbonyl]pyrazole [Example 35] | 46.0 ng/mL | – |
| O=C(CSCc1ccccc1)C1CCCC1C(=O)N1CCC[C@H]1C(=O)c1nccs1 (stereo partly drawn) [Example 15, 2-[1-{2-Benzylthioacetylcyclopentan-1-ylcarbonyl)pyrrolidin-2(S)-ylcarbonyl}thiazole] | 54.2 nM | – |
